# Measured values as given in patent US20160106106A1, “DRUG-RESISTANT MICROBE AND VARIANT MICROBE DISINFECTANT CONTAINING CHLOROUS ACID AQUEOUS SOLUTION” (HONBU SANKEI CO., LTD., priority 2013, published 2016).
# Where two headings read alike, the source gives them in different places.
# Assays:
# [1] = test system: contaminating microbes in urine (MDRP); assay: Growth suppressing effect against contaminating microbes in urine (MDRP); type: cell-based, Pseudomonas aeruginosa; details: 10 ppm, 50 ppm, 100 ppm, FIGS. 5 and 6
# Method: (§1) The testing method was in accordance with the above-described Examples. The samples prepared as stated above were used.
# (§2) Tests were conducted twice using similar samples.
# [2] = test system: Microbes of the genus Paenibacillus; assay: Microbe disinfecting effect on microbes isolated from isolator, Paenibacillus; type: cell-based; details: average ± S.D.
# Method: (§3) In the present Example, since the isolator for raising microbe-free mice was contaminated by environmental microbes, microbes were isolated from the isolator, and microbe disinfecting effects were examined in vitro using various antiseptics of interest.
# (§4) Three species of microbes were isolated to analyze 16SrDNA.
# (§5) (1) A single colony of each isolated microbe that was cultured in a BHI agar medium was cultured for two days at 37° C. in 5 mL of BHI medium. (2) After collecting microbes by centrifuging (3000×g, 4° C., 10 min) the culturedmicrobial solution, the microbes were washed twice with sterile saline (0.85%) to prepare a microbial solution of about 10^7 CFU/ml (Inoculam value). (3) Each agent of interest was prepared by diluting with sterile ion exchange water to have a predetermined concentration. 9 mL of each diluent was dispensed into a sterilized test tube. (4) 1 mL of the microbial solution prepared in (2) was added to the agent-containing test tube. A vortex mixer was used to mix well. (5) 1 mL was sampled from the test tube of (4) at a predetermined time. The sampling was added to and mixed with 0.05 mol/L sodium thiosulfate solution for neutralization. (6) 1 mL of the solution after the neutralization treatment was spread on a petri dish. The solution was pour-plate cultured for 24 hours at 37° C. in a BHI agar medium. The number of surviving microbes that had grown was measured.
# (§6) The operation was performed three times, and microbial disinfection was evaluated by average value±standard deviation (S. D.)
# [3] = test system: MRSA; assay: Growth suppressing effect against contaminating microbes in urine (MRSA); type: cell-based, Staphylococcus aureus; details: 10 ppm, 50 ppm, 100 ppm, FIG. 6
# Method: as §1, §2
# [4] = test system: Escherichia coli O157 sakai strain (1996, RIMD0509952) on chicken meat (breast meat)
# [5] = test system: Microbes of the genus Bacillus; assay: Microbe disinfecting effect on microbes isolated from isolator, Bacillus; type: cell-based; details: average ± S.D.
# Method: as §3, §4
# as §5, with “(2) After collecting microbes by centrifuging (3000×g, 4° C., 10 min) the culturedmicrobial solution, the microbes were washed twice with sterile saline (0.85%) to prepare a microbial solution of about 10^7 CFU/ml (Inoculam value).” left out
# as §6
# [6] = test system: Campylobacter jejuni JCM2013 on chicken meat (breast meat)
# Method: 1) Enterohemorrhagic Escherichia coli O157: Escherichia coli O157 sakai strain (1996, RIMD0509952) 2) Campylobacter: Campylobacter jejuni JCM2013
# 2) Campylobacter: Campylobacter jejuni JCM2013 (selected medium: CCDA plate medium)
# The selected medium was streaked. A single colony of tested microbes cultured for 48 hours at 37° C. in microaerophilic conditions was extracted with a platinum loop. The colony was then inoculated in a 50 mL×3 BHI medium, shaken and cultured under aerobic conditions for 48 hours at 37° C. (shake rate: 100 rpm).
# Chicken meat (breast meat): About 2 kg of domestic (location unknown) chicken breast meat that was purchased the day before the tests was used.
# Each cultured microbial solution was centrifuged (rate of centrifugation: 6000 rpm). The liquid medium of the supernatant was disposed. Then, the microbial solution prepared by diluting with sterilized saline to approximately 10^7 was put into a manually operated spray in the same amount to make a 10^6 microbe suspension.
# [7] = Sampling 3: after soaking 30 minutes at 400 ppm, raw material:liquid = 1:10
# [8] = Sampling 4: after soaking 30 minutes at 400 ppm, washing and draining
# [9] = Sampling 5: after soaking 30 minutes at 400 ppm, washing, storage for 24 hours at 4° C.
compound,measurement,setting,value
OCl [Sodium hypochlorite],growth suppressing effect,[1],growth suppressing effect
same,number of surviving microbes,"[2]; 200 ppm, 5 min",4.80 ± 0.25 log10 cfu/mL
same,number of surviving microbes,"[2]; 200 ppm, 10 min",4.86 ± 0.41 log10 cfu/mL
same,number of surviving microbes,"[2]; 200 ppm, 30 min",3.75 ± 0.53 log10 cfu/mL
same,number of surviving microbes,"[2]; 500 ppm, 5 min",4.07 ± 0.12 log10 cfu/mL
same,number of surviving microbes,"[2]; 500 ppm, 10 min",3.61 ± 0.09 log10 cfu/mL
same,number of surviving microbes,"[2]; 500 ppm, 30 min",3.61 ± 0.26 log10 cfu/mL
same,number of surviving microbes,"[2]; 1000 ppm, 5 min",<2.00 log10 cfu/mL
same,number of surviving microbes,"[2]; 1000 ppm, 10 min",<2.00 log10 cfu/mL
same,number of surviving microbes,"[2]; 1000 ppm, 30 min",<2.00 log10 cfu/mL
same,growth suppressing effect,[3],growth suppressing effect
same,number of E. coli O-157 on the chicken meat,[4]; [7],3.3 × 10^4 cfu/mL
same,number of E. coli O-157 on the chicken meat,[4]; [8],1.6 × 10^4 cfu/mL
same,number of E. coli O-157 on the chicken meat,[4]; [9],5.0 × 10^4 cfu/mL
same,number of surviving microbes,"[5]; 200 ppm, 5 min",5.60 ± 0.22 log10 cfu/mL
same,number of surviving microbes,"[5]; 200 ppm, 10 min",5.53 ± 0.62 log10 cfu/mL
same,number of surviving microbes,"[5]; 200 ppm, 30 min",5.34 ± 0.34 log10 cfu/mL
same,number of surviving microbes,"[5]; 500 ppm, 5 min",5.55 ± 0.45 log10 cfu/mL
same,number of surviving microbes,"[5]; 500 ppm, 10 min",5.49 ± 0.28 log10 cfu/mL
same,number of surviving microbes,"[5]; 500 ppm, 30 min",4.85 ± 0.32 log10 cfu/mL
same,number of surviving microbes,"[5]; 1000 ppm, 5 min",3.55 ± 0.46 log10 cfu/mL
same,number of Campylobacter on the chicken meat,[6]; [7],2.5 × 10^5 cfu/mL
same,number of Campylobacter on the chicken meat,[6]; [8],3.2 × 10^5 cfu/mL
same,number of Campylobacter on the chicken meat,[6]; [9],4.8 × 10^5 cfu/mL
Sodium chlorite,growth suppressing effect,[1],growth suppressing effect
same,growth suppressing effect,[3],growth suppressing effect
